# Experiments:
# [1] = target: T1, full length active recombinant SYK enzyme (Homo sapiens, UniProt P43405); assay: Inhibition of Syk tyrosine phosphorylation activity (LANCE TR-FRET kinase assay); type: biochemical
# T1 construct: full length active recombinant SYK enzyme (Millipore, Calif.); purchased Millipore
# Procedure, shortened: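 Full-length active recombinant SYK (1 nM) phosphorylated biotinylated SYK-specific peptide (550 nM) with 100 μM ATP in 50 mM Tris pH 7.5, 5 mM MgCl2, 1 mM DTT, 3% DMSO, 1 h at room temperature. EDTA quench with Eu-anti-phosphotyrosine and SA-APC, 1 h TR-FRET read; IC50 by non-linear regression.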
# ITAM signaling = settings: in response to various stimuli, including FcεR1 and BCR induced Syk activation; cited from earlier work
# JAK kinases = settings: cited from earlier work
# Src kinsase = settings: cited from earlier work
# [2] = tested on: lymphoma cell lines and primary human lymphoma samples; settings: cited from earlier work
# [3] = tested on: refractory NHL and chronic lymphocytic leukemia; settings: cited from earlier work
Compound,IC50 [1],also measured
"CC(C)C[C@@H](Nc1nc(Nc2cccc(-c3ccncc3)c2)c(C(N)=O)c(=O)[nH]1)C(N)=O [Example 112, (R)-2-(1-amino-4-methyl-1-oxopentan-2-ylamino)-6-oxo-4-(3-(pyridin-4-yl)phenylamino)-1,6-dihydropyrimidine-5-carboxamide]",0.001 to 0.01 µM,–
"CC(C)C[C@@H](Nc1nc(Nc2ccc(-c3ccccn3)cc2)c(C(N)=O)c(=O)[nH]1)C(N)=O [Example 113, (R)-2-(1-amino-4-methyl-1-oxopentan-2-ylamino)-6-oxo-4-(4-(pyridin-2-yl)phenylamino)-1,6-dihydropyrimidine-5-carboxamide]",0.001 to 0.01 µM,–
"CC(C)C[C@@H](Nc1nc(Nc2cnn(C)c2)c(C(N)=O)c(=O)[nH]1)C(N)=O [Example 114, (R)-2-(1-amino-4-methyl-1-oxopentan-2-ylamino)-4-(1-methyl-1H-pyrazol-4-ylamino)-6-oxo-1,6-dihydropyrimidine-5-carboxamide]",0.001 to 0.01 µM,–
"CC(C)C[C@@H](Nc1nc(Nc2ccn(C)n2)c(C(N)=O)c(=O)[nH]1)C(N)=O [Example 117, (R)-2-(1-amino-4-methyl-1-oxopentan-2-ylamino)-4-(1-methyl-1H-pyrazol-3-ylamino)-6-oxo-1,6-dihydropyrimidine-5-carboxamide]",0.1 to 1 µM,–
COc1cc(Nc2ncc(F)c(Nc3ccc4c(n3)NC(=O)C(C)(C)O4)n2)cc(OC)c1OC [Example R406],–,inhibition of ITAM signaling (ITAM signaling): inhibit ITAM signaling; activity against JAK kinases (JAK kinases): active; activity against Src kinase (Src kinsase): not against; BCR signaling ([2]; lymphoma cell lines and primary human lymphoma samples): attenuates BCR signaling; apoptosis ([2]; lymphoma cell lines): resulting in apoptosis; phase II clinical trial outcome [3]: favorable results

# Second part, led by results:
IC50 [1],Compound,also measured
0.001 to 0.01 µM,"CC(C)C[C@@H](Nc1nc(Nc2ccc(-n3ccnc3)cc2)c(C(N)=O)c(=O)[nH]1)C(N)=O [Example 115, (R)-2-(1-amino-4-methyl-1-oxopentan-2-ylamino)-4-(4-(1H-imidazol-1-yl)phenylamino)-6-oxo-1,6-dihydropyrimidine-5-carboxamide]",–
0.001 to 0.01 µM,"CC[C@@H](Nc1nc(Nc2ccc(-n3ccnc3)cc2)c(C(N)=O)c(=O)[nH]1)C(N)=O [Example 116, (R)-2-(1-amino-1-oxobutan-2-ylamino)-4-(4-(1H-imidazol-1-yl)phenylamino)-6-oxo-1,6-dihydropyrimidine-5-carboxamide]",–
0.001 to 0.01 µM,"CC(C)C[C@@H](Nc1nc(Nc2cccc(-n3ccnc3)c2)c(C(N)=O)c(=O)[nH]1)C(N)=O [Example 118, (R)-2-(1-amino-4-methyl-1-oxopentan-2-ylamino)-4-(3-(1H-imidazol-1-yl)phenylamino)-6-oxo-1,6-dihydropyrimidine-5-carboxamide]",–
0.001 to 0.01 µM,"CC[C@@H](Nc1nc(Nc2cccc(-n3ccnc3)c2)c(C(N)=O)c(=O)[nH]1)C(N)=O [Example 119, (R)-2-(1-amino-1-oxobutan-2-ylamino)-4-(3-(1H-imidazol-1-yl)phenylamino)-6-oxo-1,6-dihydropyrimidine-5-carboxamide]",–

# Reference: patent US20130317029A1 (PORTOLA PHARMACEUTICALS, INC., priority 2010, published 2013)
